Source: US20250368552A1, “INHIBITION OF BIOFILMS GROWTH IN PROCESS WATERS WITH MICROBIAL INTERACTIVE COMPOSITIONS” (ECOLAB USA INC., priority 2024, published 2025)

What was measured:
[1] = system: Cooling Water Bacteria Population 1; test: Biofilm inhibition test, 96 well microtiter plate, crystal violet stain (similar to ASTM E2799-12 MBEC assay); assay type: cell-based
Excerpt: The bacterial species used for the biofilm inhibition testing included: 1) cooling water bacterial population 1=total aerobic bacterial population that was obtained from cooling water samples in cooling water systems and grown on standard nutrient agar for aerobic bacteria, and 2) cooling water bacterial population 2=Pseudomonas species in cooling water systems. Pseudomonas species were collected from cooling water samples from selective media. The collected Pseudomonas population from cooling water systems were stored at −80° C. and re-inoculated into 100 mL fresh test medium (described below), incubated at a rotary shaker at 35° C., […] for 18-24 hours before used as a starter culture. […]
(§1) To quantify the biofilm and effect of the chemicals, the minimal biofilm eradication concentration (MBEC) using a method similar to the ASTM method for Testing disinfectant efficacy against Pseudomonas aeruginosa Biofilm using MBEC Assay (E2799-12), Standard Test Method for Testing Disinfectant Efficacy against Pseudomonas aeruginosa Biofilm using MBEC Assay. […]
The control where there was no chemical treatment present indicated a steady presence of biofilm build up between absorbance 0.5 to 0.6. The biofilm concentrations are correlated to the absorbance at wavelength 580-595 nm (depicted in figures as Obs 580 nm). […]

[2] = system: Cooling Water Bacteria Population 2; test: as above; assay type: cell-based, Pseudomonas species in cooling water systems
Excerpt: The bacterial species used for the biofilm inhibition testing included: 1) cooling water bacterial population 1=total aerobic bacterial population that was obtained from cooling water samples in cooling water systems and grown on standard nutrient agar for aerobic bacteria, and 2) cooling water bacterial population 2=Pseudomonas species in cooling water systems. Pseudomonas species were collected from cooling water samples from selective media. The collected Pseudomonas population from cooling water systems were stored at −80° C. and re-inoculated into 100 mL fresh test medium (described below), incubated at a rotary shaker at 35° C., […] for 18-24 hours before used as a starter culture.
The concentration range for the testing of these microorganisms for the waters was 10^4-10^8 CFU/ml.
The following Examples utilized a 96-well microtiter plate and aerobic incubation.
The Biofilm inhibition testing utilized a test medium with a final concentration of 16% test medium in the water. […]
as §1

[3] = system: Bact P1 (Cooling Water Bacteria Population 1), planktonic growth; test: Planktonic inhibition (minimum inhibition concentration in liquid culture); assay type: cell-based
Excerpt: (§2) Another plate was run according to the same procedures outlined in Examples 1-3. The experiment tested Chemicals including Alkyl Poly Glucoside, QAT Biocide, Chemical B, Chemical A+D for Planktonic inhibition as well as Biofilm Inhibition as reflected in Table 4.
(§3) The results in Table 4 show minimum biofilm inhibition concentrations (ppm) when treating different bacterial populations with each of the chemicals alone.
(§4) Minimum Inhibition Concentration (MIC): at this concentration, bacterial population stopped growth under the above incubation conditions
(§5) OD600 turbidity: bacterial concentration is correlated with the medium turbidity, The planktonic concentration can be calculated using a turbidity to bacterial count concentration model. If OD600 is <0.1, it is considered bacterial counts <10^3 cfu/ml.

[4] = system: Bact P2 (Cooling Water Bacteria Population 2), planktonic growth; test: as above; assay type: cell-based; conditions: minimum inhibitory concentration
Excerpt: as §2, §3, §4, §5

[5] = system: planktonic bacteria; test: Average planktonic bacterial concentration in liquid culture (plate count / OD600 turbidity); assay type: cell-based; conditions: control 8.7
Excerpt: (§6) Additional testing was run to show various evaluated concentrations of chemistries including No Treatment (Control), QAT Biocide, Chemical B, and Chemical A+E for assessing biofilm reduction based on average planktonic bacterial concentrations as shown in Table 5.
The following methodology for the bacterial concentration in liquid culture were used:
Plate count: plate the treated bacterial mixture after serial dilutions with required mediums like R2A, Petrifilms etc.
as §5

[6] = system: biofilm; test: Biofilm quantity on surface by crystal violet staining, biofilm reduction vs control; assay type: cell-based; conditions: for Avg Biofilm Reduction: (Treatment OD595 - Control OD595)*100/Control OD595, negative = less biofilm
Excerpt: as §6
The following methodology for the biofilm concentration on surface were used:
Biofilm quantity: biofilm quantity grew on surface can be determined by crystal violate staining, followed by 3 times of washing and then eluting.
Biofilm Reduction from chemical treatment is calculated by the following: (average Treatment OD595-average Control OD595)*100/average Control OD595 where the CV absorbance range used was 580-595 nm. If OD595 was <0.1, it was considered as non-biofilm formation. CV absorbance range 580-595 nm was used in different tests.

[7] = system: indigenous microbial populations of cooling water sources; test: MIC of hypochlorite (as free chlorine) for biofilm formation in commercial cooling water sources; assay type: cell-based; conditions: for MIC hypochlorite: hypochlorite alone, as free chlorine
Method: Additional testing was completed to show the benefit of reducing a biocidal dose with the method of preventing biofilms described herein. Various commercial cooling water sources were evaluated for the MIC of hypochlorite (Minimum Inhibition Concentration as free chlorine for biofilm formation) as the biocide dosed with the Chemistry A+Chemistry E. The test conditions and results are shown in Table 6.
Under certain conditions the biocide dosing requirement was reduced by over 90%.

[8] = concentration giving biofilm reduction
[9] = minimum biofilm inhibition concentration

## CCCCCCCCCC[N+](C)(C)CCCCCCCCCC.[Cl-] [QATS Biocide, Didecyl Dimethyl Ammonium Chloride]
[1]; [8]
  Biofilm Reduction Bact P1: 0.8 ppm
[1]; [9]
  Total Biofilm Inhibition Bact P1: 6 ppm
[2]; [8]
  Biofilm reduction Bact P2: 0.8 ppm
[2]; [9]
  Total Biofilm Inhibition Bact P2: 1.6 ppm
[3]; Table 4, Bact P1 and Bact P2
  Concentration that effectively killed planktonic bacteria: ≤ 3 ppm
[3]; minimum inhibitory concentration, Bact P1
  Planktonic Inhibition Bact P1: 3 ppm
[4]
  Planktonic Inhibition Bact P2: 1.6 ppm
[5]; 1.6 ppm
  Avg Planktonic Bacterial Conc: 8.672 Log cfu/ml
[5]; 3.1 ppm
  Avg Planktonic Bacterial Conc: 8.688 Log cfu/ml
[5]; 6.2 ppm
  Avg Planktonic Bacterial Conc: 8.609 Log cfu/ml
[5]; 12.5 ppm
  Avg Planktonic Bacterial Conc: 8.492 Log cfu/ml
[5]; 25.0 ppm
  Avg Planktonic Bacterial Conc: 8.590 Log cfu/ml
[5]; 50.0 ppm
  Avg Planktonic Bacterial Conc: <3.000 Log cfu/ml
[5]; 100.0 ppm
  Avg Planktonic Bacterial Conc: <3.000 Log cfu/ml
[6]; 1.6 ppm
  Avg Biofilm Reduction: 49.9%
[6]; 3.1 ppm
  Avg Biofilm Reduction: 54.0%
[6]; 6.2 ppm
  Avg Biofilm Reduction: 108.4%
[6]; 12.5 ppm
  Avg Biofilm Reduction: −3.5%
[6]; 25.0 ppm
  Avg Biofilm Reduction: 34.7%
[6]; 50.0 ppm
  Avg Biofilm Reduction: −89.1%
[6]; 100.0 ppm
  Avg Biofilm Reduction: −12.1%
[6]; Table 5
  Concentration showing both planktonic and biofilm control: greater than 50 ppm

## OCl [hypochlorite]
[7]; Cooling Water Source 1
  MIC hypochlorite: 25 ppm
  MIC hypochlorite (ppm) With 6 ppm Chemistry A + Chemistry E: 3.1 ppm
[7]; Cooling Water Source 2
  MIC hypochlorite: 25 ppm
  MIC hypochlorite (ppm) With 6 ppm Chemistry A + Chemistry E: 6.3 ppm
[7]; Cooling Water Source 3
  MIC hypochlorite: 12.5 ppm
  MIC hypochlorite (ppm) With 6 ppm Chemistry A + Chemistry E: 0.8 ppm
[7]; Cooling Water Source 4
  MIC hypochlorite: 25 ppm
  MIC hypochlorite (ppm) With 6 ppm Chemistry A + Chemistry E: 12.5 ppm
